Data taken from patent US20110301142A1, “ANTAGONISTS OF LYSOPHOSPHATIDIC ACID RECEPTORS” (priority 2008, published 2011).
pIC50: −log10 of the molar value.

The compounds below were run against T1, human LPA1 (Homo sapiens, UniProt Q92633) (assay: LPA1 calcium flux assay (HLPA1 Ca Flux)). Settings: Human LPA1 expressing CHO cells, stimulated with 10 nM LPA.
T1 construct: the full-length cDNA for human LPA1 was obtained by PCR of the reverse transcription reaction; expressed in transfected cells
Assay type: cell-based
Description: A 1.1 kb cDNA encoding the human LPA1 receptor was cloned from human lung. Human lung RNA (Clontech Laboratories, Inc. USA) was reverse transcribed using the RETROscript kit (Ambion, Inc.) and the full-length cDNA for human LPA1 was obtained by PCR of the reverse transcription reaction. The nucleotide sequence of the cloned human LPA1 was determined by sequencing and confirmed to be identical to the published human LPA1 sequence (An et al. Biochem. Biophys. Res. Commun. 231:619 (1997). The cDNA was cloned into the pcDNAS/FRT expression plasmid and transfected in CHO cells using lipofectamine 2000 (Invitrogen Corp., USA). Clones stably expressing human LPA1 were selected using hygromycin and identified as cells that show Ca-influx in response to LPA.
Human LPA1 or LPA3 expressing CHO cells are seeded at 20,000-45,000 cells per well in a 96-well poly-D-lysine coated plate one or two days before the assay. Prior to the assay, the cells are washed once with PBS and then cultured in serum-free media overnight. On the day of the assay, a calcium indicator dye (Calcium 4, Molecular Devices) in assay buffer (HBSS with Ca^2+ and Mg^2+ and containing 20 mM Hepes and 0.3% fatty-acid free human serum albumin) is added to each well and incubation continued for 1 hour at 37° C. 10 μl of test compounds in 2.5% DMSO are added to the cells and incubation continued at room temperature for 30 minutes. Cells are the stimulated by the addition of 10 nM LPA and intracellular Ca^2+ measured using the Flexstation 3 (Molecular Devices). IC50s are determined using Graphpad prism analysis of drug titration curves.

T1 sequence (Q92633 whole entry): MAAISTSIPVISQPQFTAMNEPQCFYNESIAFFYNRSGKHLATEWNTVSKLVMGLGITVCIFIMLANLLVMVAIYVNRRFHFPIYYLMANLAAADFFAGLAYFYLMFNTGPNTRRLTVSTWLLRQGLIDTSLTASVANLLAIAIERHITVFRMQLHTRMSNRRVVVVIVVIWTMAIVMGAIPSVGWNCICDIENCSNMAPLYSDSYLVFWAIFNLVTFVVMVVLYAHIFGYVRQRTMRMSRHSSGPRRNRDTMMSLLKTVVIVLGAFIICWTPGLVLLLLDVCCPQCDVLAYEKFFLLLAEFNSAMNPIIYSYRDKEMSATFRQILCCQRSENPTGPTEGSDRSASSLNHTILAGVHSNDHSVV

Structure (SMILES)	pIC50
Cc1noc(-c2ccc(-c3ccc(CC(=O)O)cc3)cn2)c1NC(=O)OC(C)c1ccccc1Cl (stereo not shown) [Compound 1-73]	> 6.52
Cc1noc(-c2ccc(-c3ccc(CCCC(=O)O)cc3)cc2)c1NC(=O)OC(C)c1ccccc1Cl (stereo not shown) [Compound 1-75, 4-(4′-{4-[1-(2-Chloro-phenyl)-ethoxycarbonylamino]-3-methyl-isoxazol-5-yl}-biphenyl-4-yl)-butyric acid]	> 6.52
Cc1noc(-c2ccc(Cc3cc(CC(=O)O)ccc3F)cc2)c1NC(=O)O[C@H](C)c1ccccc1F [Compound 1-82, [4-Fluoro-3-(4-{4-[(R)-1-(2-fluoro-phenyl)-ethoxycarbonylamino]-3-methyl-isoxazol-5-yl}-benzyl)-phenyl]-acetic acid]	6.00 to 6.52
CCOC(=O)Cc1ccc(Oc2ccc(-c3onc(C)c3NC(=O)O[C@H](C)c3ccccc3F)cc2)cc1 [Compound 1-83, [4-(4-{4-[(R)-1-(2-Fluoro-phenyl)-ethoxycarbonylamino]-3-methyl-isoxazol-5-yl}-phenoxy)-phenyl]-acetic acid ethyl ester]	6.00 to 6.52
Cc1noc(-c2ccc(-c3ccc(CC(=O)O)cc3)cc2)c1NC(=O)OC(C)c1c(Cl)cccc1Cl (stereo not shown) [Compound 1-101, (4′-{4-[1-(2,6-Dichloro-phenyl)-ethoxycarbonylamino]-3-methyl-isoxazol-5-yl}-biphenyl-4-yl)-acetic acid]	4.30 to 6.00
Cc1noc(-c2ccc(OCc3ccc(C(=O)O)cc3)cc2)c1NC(=O)O[C@H](C)c1ccccc1F [Compound 1-104, 4-(4-{4-[(R)-1-(2-Fluoro-phenyl)-ethoxycarbonylamino]-3-methyl-isoxazol-5-yl}-phenoxymethyl)-benzoic acid]	4.30 to 6.00
CCOC(=O)Cc1ccc(Sc2ccc(-c3onc(C)c3NC(=O)O[C@H](C)c3ccccc3F)cc2)cc1 [Compound 1-105, [4-(4-{4-[(R)-1-(2-Fluoro-phenyl)-ethoxycarbonylamino]-3-methyl-isoxazol-5-yl}-phenylsulfanyl)-phenyl]-acetic acid ethyl ester]	4.30 to 6.00
Cc1noc(-c2ccc(Sc3cccc(CC(=O)O)c3)cc2)c1NC(=O)O[C@H](C)c1ccccc1F [Compound 1-106, [3-(4-{4-[(R)-1-(2-Fluoro-phenyl)-ethoxycarbonylamino]-3-methyl-isoxazol-5-yl}-phenylsulfanyl)-phenyl]-acetic acid]	6.00 to 6.52
Cc1noc(-c2ccc(Sc3ccccc3CC(=O)O)cc2)c1NC(=O)O[C@H](C)c1ccccc1F [Compound 1-107, [2-(4-{4-[(R)-1-(2-Fluoro-phenyl)-ethoxycarbonylamino]-3-methyl-isoxazol-5-yl}-phenylsulfanyl)-phenyl]-acetic acid]	4.30 to 6.00
Cc1noc(-c2ccc(Sc3ccc(CC(=O)O)cn3)cc2)c1NC(=O)O[C@H](C)c1ccccc1F [Compound 1-108, [6-(4-{4-[(R)-1-(2-Fluoro-phenyl)-ethoxycarbonylamino]-3-methyl-isoxazol-5-yl}-phenylsulfanyl)-pyridin-3-yl]-acetic acid]	> 6.52
Cc1cc(-c2onc(C)c2NC(=O)O[C@H](C)c2ccccc2F)ccc1-c1ccc(C(C)C(=O)O)cc1 (stereo partly drawn) [Compound 1-110, 2-(4′-{4-[(R)-1-(2-Fluoro-phenyl)-ethoxycarbonylamino]-3-methyl-isoxazol-5-yl}-2′-methyl-biphenyl-4-yl)-propionic acid]	> 6.52
Cc1noc(-c2ccc(-c3ccc(CC(=O)O)cc3)cc2)c1NC(=O)OCc1ccccc1Cl [Compound 1-113, {4′-[4-(2-Chloro-benzyloxycarbonylamino)-3-methyl-isoxazol-5-yl]-biphenyl-4-yl}-acetic acid]	6.00 to 6.52
COc1ccc(C(C)OC(=O)Nc2c(C)noc2-c2ccc(-c3ccc(CC(=O)O)cc3)cc2)c(F)c1 (stereo not shown) [Compound 1-118, (4′-{4-[1-(2-Fluoro-4-methoxy-phenyl)-ethoxycarbonylamino]-3-methyl-isoxazol-5-yl}-biphenyl-4-yl)-acetic acid]	6.00 to 6.52
Cc1noc(-c2ccc(-c3ccccc3CC(=O)O)cc2)c1NC(=O)O[C@H](C)c1ccccc1 [Compound 1-123]	4.30 to 6.00
Cc1noc(-c2ccc(-c3ccc(C(=O)O)cc3)cc2)c1NC(=O)OC(C)C [Compound 1-125, 4′-(4-Isopropoxycarbonylamino-3-methyl-isoxazol-5-yl)-biphenyl-4-carboxylic acid]	4.30 to 6.00
Cc1noc(-c2ccc(-c3ccc(CC(=O)O)cc3)cc2)c1NC(=O)OC(C)(C)C [Compound 1-136, [4′-(4-tert-Butoxycarbonylamino-3-methyl-isoxazol-5-yl)-biphenyl-4-yl]-acetic acid]	6.00 to 6.52

Now from value to compound:

pIC50	Structure (SMILES)
4.30 to 6.00	COC(=O)Cn1nnc(-c2ccc(-c3onc(C)c3NC(=O)O[C@H](C)c3ccccc3F)cc2)n1 [Compound 1-134, [5-(4-{4-[(R)-1-(2-Fluoro-phenyl)-ethoxycarbonylamino]-3-methyl-isoxazol-5-yl}-phenyl)-tetrazol-2-yl]-acetic acid methyl ester]
4.30 to 6.00	Cc1noc(-c2ccc(-c3nnn(CC(=O)O)n3)cc2)c1NC(=O)O[C@H](C)c1ccccc1F [Compound 1-135, [5-(4-{4-[(R)-1-(2-Fluoro-phenyl)-ethoxycarbonylamino]-3-methyl-isoxazol-5-yl}-phenyl)-tetrazol-2-yl]-acetic acid]
4.30 to 6.00	Cc1noc(-c2ccc(CN3CC(C(=O)O)C3)cc2)c1NC(=O)O[C@H](C)c1ccccc1 [Compound 1-140]
4.30 to 6.00	Cc1noc(-c2ccc(-c3ccc(CC(=O)O)cc3)cc2)c1NC(=O)O[C@H](C)c1cc(Br)cc(Br)c1 [Compound 1-141, (4′-{4-[(R)-1-(3,5-Dibromo-phenyl)-ethoxycarbonylamino]-3-methyl-isoxazol-5-yl}-biphenyl-4-yl)-acetic acid]
> 6.52	Cc1noc(-c2ccc(Cc3ccc(C(=O)NC4CC4)cc3)cc2)c1NC(=O)OC(C)c1ccccc1Cl (stereo not shown) [Compound 2-1, {5-[4-(4-Cyclopropylcarbamoyl-benzyl)-phenyl]-3-methyl-isoxazol-4-yl}-carbamic acid 1-(2-chloro-phenyl)-ethyl ester]
4.30 to 6.00	Cc1noc(-c2ccc(-c3ccc(CC(=N)N)cc3)cc2)c1NC(=O)O[C@H](C)c1ccccc1F [Compound 2-6, [5-(4′-Carbamimidoylmethyl-biphenyl-4-yl)-3-methyl-isoxazol-4-yl]-carbamic acid (R)-1-(2-fluoro-phenyl)-ethyl ester]
> 6.52	CC(=O)NC(=N)Cc1ccc(-c2ccc(-c3onc(C)c3NC(=O)O[C@H](C)c3ccccc3F)cc2)cc1 [Compound 2-7, {5-[4′-(2-Acetylamino-2-imino-ethyl)-biphenyl-4-yl]-3-methyl-isoxazol-4-yl}-carbamic acid (R)-1-(2-fluoro-phenyl)-ethyl ester]
6.00 to 6.52	Cc1noc(-c2ccc3cc(-c4ccc(CC(=O)O)cc4)ccc3c2)c1NC(=O)OC(C)c1ccccc1Cl (stereo not shown) [Compound 3-1]
6.00 to 6.52	Cc1noc(-c2ccc3cc(-c4ccc(CSCCC(=O)O)cc4)ccc3c2)c1NC(=O)OC(C)c1ccccc1Cl (stereo not shown) [Compound 3-2, 3-[4-(6-{4-[1-(2-Chloro-phenyl)-ethoxycarbonylamino]-3-methyl-isoxazol-5-yl}-naphthalen-2-yl)-benzylsulfanyl]-propionic acid]
